Experimental data taken from ChEMBL document CHEMBL4627396 (J Med Chem, 2020).
One block for each compound: values may come before it. Activity calls are given as the source filed them. The calls are words filed in the database; no cut-off is given here.

Assays:
[1] = target: T1, Dual specificity mitogen-activated protein kinase kinase 5 (Homo sapiens, UniProt Q13163)
T1 sequence (Q13163 whole entry): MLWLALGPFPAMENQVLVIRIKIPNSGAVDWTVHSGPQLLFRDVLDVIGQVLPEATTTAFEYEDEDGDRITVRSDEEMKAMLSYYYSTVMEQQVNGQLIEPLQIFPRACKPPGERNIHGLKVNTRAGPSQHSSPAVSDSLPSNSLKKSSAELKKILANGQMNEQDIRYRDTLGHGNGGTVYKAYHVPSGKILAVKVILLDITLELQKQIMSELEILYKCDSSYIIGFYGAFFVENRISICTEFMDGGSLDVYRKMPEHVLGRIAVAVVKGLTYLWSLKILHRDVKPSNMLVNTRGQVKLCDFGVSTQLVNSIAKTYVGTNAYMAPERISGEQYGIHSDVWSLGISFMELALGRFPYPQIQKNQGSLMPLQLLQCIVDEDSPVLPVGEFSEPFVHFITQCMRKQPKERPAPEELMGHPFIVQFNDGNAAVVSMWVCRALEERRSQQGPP

in vivo = details: Crl:CD Sprague-Dawley, rat, iv, 1 mg/kg
[2] = target: Phosphatidylinositol 4-phosphate 5-kinase type-1 gamma (Homo sapiens, UniProt O60331)
Cytochrome P450 3A4 = Cytochrome P450 3A4 (Homo sapiens, UniProt P08684); assay: Inhibition of CYP3A4 (unknown origin); type: ADME
[3] = target: T2, Receptor-interacting serine/threonine-protein kinase 4 (Homo sapiens, UniProt P57078)
T2 sequence (P57078 whole entry): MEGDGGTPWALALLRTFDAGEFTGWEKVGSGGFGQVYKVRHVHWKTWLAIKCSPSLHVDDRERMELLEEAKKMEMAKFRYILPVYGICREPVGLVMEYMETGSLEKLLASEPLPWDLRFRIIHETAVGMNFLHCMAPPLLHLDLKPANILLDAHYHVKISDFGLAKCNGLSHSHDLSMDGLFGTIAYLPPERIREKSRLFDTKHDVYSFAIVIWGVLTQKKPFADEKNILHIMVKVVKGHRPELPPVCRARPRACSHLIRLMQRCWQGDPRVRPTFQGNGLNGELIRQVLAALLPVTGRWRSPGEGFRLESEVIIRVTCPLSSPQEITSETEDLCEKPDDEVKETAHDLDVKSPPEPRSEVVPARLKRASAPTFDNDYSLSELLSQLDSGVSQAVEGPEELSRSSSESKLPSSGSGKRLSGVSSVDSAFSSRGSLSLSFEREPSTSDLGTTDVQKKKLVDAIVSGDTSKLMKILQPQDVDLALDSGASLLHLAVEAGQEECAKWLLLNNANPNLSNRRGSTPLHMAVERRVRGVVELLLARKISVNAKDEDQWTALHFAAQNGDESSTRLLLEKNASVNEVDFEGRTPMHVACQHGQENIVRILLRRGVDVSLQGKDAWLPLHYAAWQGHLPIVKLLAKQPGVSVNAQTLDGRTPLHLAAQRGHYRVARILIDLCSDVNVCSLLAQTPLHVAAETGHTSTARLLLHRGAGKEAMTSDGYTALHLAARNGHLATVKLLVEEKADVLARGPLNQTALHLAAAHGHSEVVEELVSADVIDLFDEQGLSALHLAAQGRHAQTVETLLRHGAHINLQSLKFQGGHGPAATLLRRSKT

[4] = Toxicity in NSG mouse assessed as adverse effect at 40 mg/kg administered once daily for 21 days; type: organism-based; details: in vivo
[5] = target: Mitogen-activated protein kinase kinase kinase 11 (Homo sapiens, UniProt Q16584)
Cytochrome P450 2D6 = Cytochrome P450 2D6 (Homo sapiens, UniProt P10635); assay: Inhibition of CYP2D6 (unknown origin); type: ADME
[6] = Drug metabolism in human hepatocytes assessed per million cells; type: ADME, cell-based, Hepatocyte
[7] = Drug metabolism in mouse microsomes; type: ADME, Microsome; details: read-out: Drug metabolism
Cytochrome P450 1A2 = target: T3, Cytochrome P450 1A2 (Homo sapiens, UniProt P05177); assay: Inhibition of CYP1A2 (unknown origin); type: ADME
T3 sequence (P05177 whole entry): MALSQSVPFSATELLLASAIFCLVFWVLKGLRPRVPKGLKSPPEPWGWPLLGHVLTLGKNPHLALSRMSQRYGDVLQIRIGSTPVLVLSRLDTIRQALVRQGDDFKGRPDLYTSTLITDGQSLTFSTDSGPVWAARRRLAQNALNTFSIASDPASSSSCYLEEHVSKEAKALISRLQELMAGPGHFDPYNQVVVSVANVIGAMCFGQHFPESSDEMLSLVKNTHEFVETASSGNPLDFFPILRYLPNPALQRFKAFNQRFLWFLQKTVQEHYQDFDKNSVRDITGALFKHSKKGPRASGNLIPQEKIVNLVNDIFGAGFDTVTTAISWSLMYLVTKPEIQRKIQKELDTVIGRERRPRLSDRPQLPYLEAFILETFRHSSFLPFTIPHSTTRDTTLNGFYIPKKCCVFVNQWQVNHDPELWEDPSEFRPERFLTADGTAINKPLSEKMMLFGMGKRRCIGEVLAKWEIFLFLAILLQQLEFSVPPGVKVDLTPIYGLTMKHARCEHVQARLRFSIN

[8] = Drug metabolism in rat microsomes; type: ADME, Microsome; details: read-out: Drug metabolism
[9] = target: T4, Tyrosine-protein kinase SYK (Homo sapiens, UniProt P43405); details: 10 uM
[10] = target: T4, Tyrosine-protein kinase SYK
[11] = target: Glycogen synthase kinase-3 beta (Homo sapiens) (UniProt P49841); details: 10 uM
[12] = target: T5, Calcium/calmodulin-dependent protein kinase type IV (Homo sapiens) (UniProt Q16566); details: 10 uM
T5 sequence (whole entry): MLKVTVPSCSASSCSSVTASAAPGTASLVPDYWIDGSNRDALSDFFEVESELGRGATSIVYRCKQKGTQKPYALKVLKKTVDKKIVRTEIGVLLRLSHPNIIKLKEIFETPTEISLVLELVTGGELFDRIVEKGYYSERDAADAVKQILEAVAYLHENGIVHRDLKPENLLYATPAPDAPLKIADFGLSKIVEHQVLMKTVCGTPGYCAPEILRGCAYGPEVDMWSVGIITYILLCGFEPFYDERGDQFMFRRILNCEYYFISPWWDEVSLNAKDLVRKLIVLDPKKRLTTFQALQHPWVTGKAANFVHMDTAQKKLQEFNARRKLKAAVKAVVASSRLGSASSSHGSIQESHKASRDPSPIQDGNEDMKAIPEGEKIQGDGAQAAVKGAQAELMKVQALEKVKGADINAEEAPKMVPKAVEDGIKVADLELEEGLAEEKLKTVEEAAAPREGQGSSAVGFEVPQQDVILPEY

[13] = target: Calcium/calmodulin-dependent protein kinase type 1D (Homo sapiens) (UniProt Q8IU85)
[14] = target: T6, Serine/threonine-protein kinase DCLK1 (Homo sapiens) (UniProt O15075); details: 10 uM
T6 sequence (whole entry): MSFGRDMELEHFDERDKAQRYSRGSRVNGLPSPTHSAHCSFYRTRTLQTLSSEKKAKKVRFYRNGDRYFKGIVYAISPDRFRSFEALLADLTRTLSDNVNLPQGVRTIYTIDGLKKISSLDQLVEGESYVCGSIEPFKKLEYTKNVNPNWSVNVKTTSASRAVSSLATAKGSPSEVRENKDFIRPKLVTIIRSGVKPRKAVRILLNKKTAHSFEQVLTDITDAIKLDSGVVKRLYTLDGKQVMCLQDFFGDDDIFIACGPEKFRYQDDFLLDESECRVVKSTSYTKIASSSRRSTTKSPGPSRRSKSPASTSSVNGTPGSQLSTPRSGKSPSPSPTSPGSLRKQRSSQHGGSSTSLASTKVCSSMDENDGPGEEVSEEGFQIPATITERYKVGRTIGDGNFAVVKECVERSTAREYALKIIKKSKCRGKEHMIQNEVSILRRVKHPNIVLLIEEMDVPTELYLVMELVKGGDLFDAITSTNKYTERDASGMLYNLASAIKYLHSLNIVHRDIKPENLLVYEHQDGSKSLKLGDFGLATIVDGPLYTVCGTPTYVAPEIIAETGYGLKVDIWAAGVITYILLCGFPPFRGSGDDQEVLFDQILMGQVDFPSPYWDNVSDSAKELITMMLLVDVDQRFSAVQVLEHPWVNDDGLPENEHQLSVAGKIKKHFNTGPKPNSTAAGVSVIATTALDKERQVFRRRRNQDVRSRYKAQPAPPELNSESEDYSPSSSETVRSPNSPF

[15] = target: Death-associated protein kinase 3 (Homo sapiens) (UniProt O43293); details: 10 uM
Mus musculus [16] = assay: Antidiabetic activity in diet induced obese C57Bl/6J mouse model assessed as reduction in plasma insulin level at 25 to 50 mg/kg, po administered 4 hrs prior to glucose stimulation and measured after 10 to 90 mins by OGTT; type: functional, organism-based
[17] = Drug metabolism in human microsomes; type: ADME, Microsome; details: read-out: Drug metabolism
[18] = Drug metabolism in rat hepatocytes assessed per million cells; type: ADME, cell-based, Hepatocyte
[19] = Toxicity in diet induced obese C57Bl/6J mouse model assessed as bloating of gastrointestinal tract at 50 mg/kg, po administered twice daily for 14 days; type: organism-based; details: in vivo
Mus musculus [20] = assay: Antidiabetic activity in diet induced obese C57Bl/6J mouse model assessed as reduction in baseline blood glucose level at 25 mg/kg, po administered twice daily for 14 days followed by glucose challenge at 4 hrs post last dose and measured after 10 to 90 mins by OGTT; type: functional, organism-based
Mus musculus [21] = assay: Antidiabetic activity in diet induced obese C57Bl/6J mouse model assessed as reduction in plasma insulin level at 25 mg/kg, po administered twice daily for 14 days followed by glucose challenge at 4 hrs post last dose and measured after 10 to 90 mins by OGTT; type: functional, organism-based
[22] = Drug metabolism in rat plasma assessed as amide hydrolysis; type: ADME, cell-free
Mus musculus [23] = assay: Antidiabetic activity in diet induced obese C57Bl/6J mouse model assessed as change in blood glucose AUC at 25 mg/kg, po administered twice daily for 14 days followed by glucose challenge at 4 hrs post last dose and measured after 10 to 90 mins by OGTT; type: functional, organism-based
[24] = Drug metabolism in rat plasma assessed as acetylation; type: ADME, cell-free
[25] = Drug metabolism in rat plasma assessed as oxidation; type: ADME, cell-free
Mus musculus [26] = assay: Antidiabetic activity in diet induced obese C57Bl/6J mouse model assessed as reduction in blood glucose level at 25 to 50 mg/kg, po administered 4 hrs prior to glucose stimulation and measured after 10 to 90 mins by OGTT; type: functional, organism-based
Mus musculus [27] = assay: Antidiabetic activity in diet induced obese C57Bl/6J mouse model assessed as reduction in peak blood glucose level at 25 mg/kg, po administered twice daily for 14 days followed by glucose challenge at 4 hrs post last dose and measured after 10 to 90 mins by OGTT; type: functional, organism-based
[28] = Drug excretion in Crl:CD Sprague-Dawley rat urine; type: ADME; details: in vivo

Chain of Cytochrome P450 2D6 (P10635 whole entry): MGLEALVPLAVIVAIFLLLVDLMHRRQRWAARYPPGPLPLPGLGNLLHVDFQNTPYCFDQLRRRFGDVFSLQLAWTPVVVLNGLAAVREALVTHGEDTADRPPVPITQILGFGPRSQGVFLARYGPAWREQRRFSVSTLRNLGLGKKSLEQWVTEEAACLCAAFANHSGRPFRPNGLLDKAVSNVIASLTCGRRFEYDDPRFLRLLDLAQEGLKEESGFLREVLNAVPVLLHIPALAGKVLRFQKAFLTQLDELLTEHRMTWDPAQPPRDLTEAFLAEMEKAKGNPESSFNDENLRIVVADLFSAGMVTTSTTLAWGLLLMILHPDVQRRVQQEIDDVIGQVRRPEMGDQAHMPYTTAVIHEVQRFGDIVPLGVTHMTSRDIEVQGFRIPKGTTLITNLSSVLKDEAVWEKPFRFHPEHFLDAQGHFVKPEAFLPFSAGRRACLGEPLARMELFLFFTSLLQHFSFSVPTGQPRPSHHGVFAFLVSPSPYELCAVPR
Chain of Cytochrome P450 3A4 (P08684 whole entry): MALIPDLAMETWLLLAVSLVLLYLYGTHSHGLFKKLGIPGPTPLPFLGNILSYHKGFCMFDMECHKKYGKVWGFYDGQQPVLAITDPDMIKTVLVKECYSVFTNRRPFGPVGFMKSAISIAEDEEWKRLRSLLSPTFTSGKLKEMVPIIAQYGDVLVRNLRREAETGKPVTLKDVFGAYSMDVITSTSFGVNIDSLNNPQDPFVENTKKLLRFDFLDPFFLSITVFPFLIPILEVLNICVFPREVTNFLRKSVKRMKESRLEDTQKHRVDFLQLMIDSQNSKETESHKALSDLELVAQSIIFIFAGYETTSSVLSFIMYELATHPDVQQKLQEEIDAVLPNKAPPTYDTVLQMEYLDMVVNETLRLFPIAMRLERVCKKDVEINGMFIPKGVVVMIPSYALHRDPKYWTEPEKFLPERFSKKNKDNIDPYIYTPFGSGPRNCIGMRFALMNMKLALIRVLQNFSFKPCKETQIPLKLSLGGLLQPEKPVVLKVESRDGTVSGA
Chain of Glycogen synthase kinase-3 beta (Homo sapiens) (P49841 whole entry, looked up): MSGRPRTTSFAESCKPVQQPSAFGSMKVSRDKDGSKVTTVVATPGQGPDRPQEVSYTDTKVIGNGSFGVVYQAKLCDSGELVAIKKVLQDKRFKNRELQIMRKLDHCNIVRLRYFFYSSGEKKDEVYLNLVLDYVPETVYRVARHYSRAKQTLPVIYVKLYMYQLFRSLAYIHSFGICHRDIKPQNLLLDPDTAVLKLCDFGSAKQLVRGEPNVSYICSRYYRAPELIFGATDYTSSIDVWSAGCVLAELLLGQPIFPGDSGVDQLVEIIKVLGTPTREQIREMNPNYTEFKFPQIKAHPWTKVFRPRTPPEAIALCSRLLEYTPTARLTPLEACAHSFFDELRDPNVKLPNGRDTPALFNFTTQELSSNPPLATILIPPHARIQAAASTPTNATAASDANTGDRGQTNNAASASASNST
Chain of Death-associated protein kinase 3 (Homo sapiens) (O43293 whole entry, looked up): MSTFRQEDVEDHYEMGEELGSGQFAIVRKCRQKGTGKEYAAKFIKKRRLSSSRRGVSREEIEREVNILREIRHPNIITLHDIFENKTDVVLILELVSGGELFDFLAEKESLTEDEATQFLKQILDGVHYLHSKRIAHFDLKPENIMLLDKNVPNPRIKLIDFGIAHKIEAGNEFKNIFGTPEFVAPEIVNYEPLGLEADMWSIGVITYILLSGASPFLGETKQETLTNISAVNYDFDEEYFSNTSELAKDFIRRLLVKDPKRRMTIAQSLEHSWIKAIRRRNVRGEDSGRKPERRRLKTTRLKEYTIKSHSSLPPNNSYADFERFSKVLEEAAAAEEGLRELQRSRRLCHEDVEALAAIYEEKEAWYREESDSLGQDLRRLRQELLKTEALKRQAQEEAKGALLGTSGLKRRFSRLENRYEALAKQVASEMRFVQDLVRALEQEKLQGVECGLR
Chain of Mitogen-activated protein kinase kinase kinase 11 (Q16584 whole entry): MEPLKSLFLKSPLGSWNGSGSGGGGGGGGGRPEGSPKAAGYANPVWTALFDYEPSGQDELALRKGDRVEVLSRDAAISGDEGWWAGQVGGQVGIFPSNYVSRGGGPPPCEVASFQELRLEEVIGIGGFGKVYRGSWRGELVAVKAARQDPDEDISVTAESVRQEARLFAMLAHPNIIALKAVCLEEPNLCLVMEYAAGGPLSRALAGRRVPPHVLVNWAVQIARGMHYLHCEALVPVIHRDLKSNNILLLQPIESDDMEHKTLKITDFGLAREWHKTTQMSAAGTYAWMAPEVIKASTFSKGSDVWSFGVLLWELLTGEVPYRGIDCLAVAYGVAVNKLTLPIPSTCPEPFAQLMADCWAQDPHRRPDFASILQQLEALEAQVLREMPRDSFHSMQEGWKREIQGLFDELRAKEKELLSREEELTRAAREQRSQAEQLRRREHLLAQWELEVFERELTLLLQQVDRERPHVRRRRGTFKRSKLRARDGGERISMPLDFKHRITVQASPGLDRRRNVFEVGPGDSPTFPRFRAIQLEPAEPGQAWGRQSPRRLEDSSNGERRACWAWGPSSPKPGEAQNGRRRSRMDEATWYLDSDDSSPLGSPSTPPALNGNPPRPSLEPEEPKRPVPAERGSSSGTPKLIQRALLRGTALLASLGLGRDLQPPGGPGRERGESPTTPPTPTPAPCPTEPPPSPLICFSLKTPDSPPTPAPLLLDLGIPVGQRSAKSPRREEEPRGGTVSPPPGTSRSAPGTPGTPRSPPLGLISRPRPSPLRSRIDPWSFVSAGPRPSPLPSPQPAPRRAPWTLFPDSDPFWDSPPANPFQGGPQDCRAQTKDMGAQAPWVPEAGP
Chain of Phosphatidylinositol 4-phosphate 5-kinase type-1 gamma (O60331 whole entry): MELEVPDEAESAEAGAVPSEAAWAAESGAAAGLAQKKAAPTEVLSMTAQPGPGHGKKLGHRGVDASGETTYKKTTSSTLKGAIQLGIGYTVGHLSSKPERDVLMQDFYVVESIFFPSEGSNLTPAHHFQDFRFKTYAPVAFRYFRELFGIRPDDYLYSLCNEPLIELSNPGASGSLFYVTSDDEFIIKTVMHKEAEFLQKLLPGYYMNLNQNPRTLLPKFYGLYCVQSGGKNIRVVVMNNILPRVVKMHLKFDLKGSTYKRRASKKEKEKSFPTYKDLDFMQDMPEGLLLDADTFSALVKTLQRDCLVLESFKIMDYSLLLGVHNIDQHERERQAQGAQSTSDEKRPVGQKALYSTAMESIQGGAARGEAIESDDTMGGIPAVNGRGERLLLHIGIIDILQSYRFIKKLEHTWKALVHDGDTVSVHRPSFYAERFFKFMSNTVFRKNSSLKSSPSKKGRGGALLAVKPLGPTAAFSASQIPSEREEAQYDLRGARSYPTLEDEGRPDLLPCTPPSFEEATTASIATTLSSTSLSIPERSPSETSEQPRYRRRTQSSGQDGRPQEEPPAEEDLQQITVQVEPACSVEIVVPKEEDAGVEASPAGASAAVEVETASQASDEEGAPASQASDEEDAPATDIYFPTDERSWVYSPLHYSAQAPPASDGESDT
Chain of Calcium/calmodulin-dependent protein kinase type 1D (Homo sapiens) (Q8IU85 whole entry, looked up): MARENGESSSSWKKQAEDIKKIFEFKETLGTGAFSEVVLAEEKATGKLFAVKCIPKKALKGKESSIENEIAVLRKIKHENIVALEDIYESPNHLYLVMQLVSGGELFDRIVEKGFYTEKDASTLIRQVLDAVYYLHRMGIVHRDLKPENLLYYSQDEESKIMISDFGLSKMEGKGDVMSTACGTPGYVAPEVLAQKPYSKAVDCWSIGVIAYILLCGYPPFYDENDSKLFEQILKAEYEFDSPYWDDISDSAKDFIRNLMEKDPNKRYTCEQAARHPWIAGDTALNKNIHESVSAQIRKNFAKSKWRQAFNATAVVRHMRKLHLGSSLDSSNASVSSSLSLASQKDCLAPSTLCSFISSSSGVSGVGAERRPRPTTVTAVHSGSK

IC50 [1]: 0.025 µM | Vd (in vivo): 18.5 L/kg | IC50 [2]: 11.2 µM | IC50 (Cytochrome P450 3A4): > 20 µM | IC50 [3]: 5.69 µM | IC50 [5]: 2.75 µM | IC50 (Cytochrome P450 2D6): > 20 µM | Drug metabolism [6]: 19 µL/min | microsomal CLint [7]: 6 µL/min/mg | IC50 (Cytochrome P450 1A2): > 20 µM | microsomal CLint [8]: 3 µL/min/mg
Structure (SMILES): CC(C)c1cc(Nc2nc(N3CCC[C@H](N)C3)ncc2C(N)=O)cc(C(C)C)n1
Activity [4]: Non-Toxic

Structure (SMILES): NCCNc1ncc(C(N)=O)c(Nc2cccc(C(F)(F)F)c2)n1
ΔTm [9]: 7.51 °C | IC50 [10]: 0.007 µM | ΔTm [11]: 3.4 °C | ΔTm [12]: 1.34 °C | ΔTm [13]: 5.44 °C | ΔTm [14]: 0.11 °C | ΔTm [15]: 4.05 °C

microsomal CLint [17]: 13 µL/min/mg | Drug metabolism [18]: 11 µL/min | IC50 (Cytochrome P450 3A4): > 20 µM | Drug metabolism [22]: Metabolite_Detected | Drug metabolism [24]: Metabolite_Detected | Drug metabolism [25]: Metabolite_Detected | IC50 (Cytochrome P450 2D6): > 20 µM | Drug excretion [28]: Metabolite_Detected | IC50 (Cytochrome P450 1A2): > 20 µM | microsomal CLint [8]: < 1 µL/min/mg
Structure (SMILES): CC(C)(C#N)c1cc(Nc2nc(N3CCC[C@H](N)C3)ncc2C(N)=O)cc(C(C)(C)C#N)c1
Activity (Mus musculus [16]): Active | Activity [19]: Toxic | Activity (Mus musculus [20]): Active | Activity (Mus musculus [21]): Active | Activity (Mus musculus [23]): inactive | Activity (Mus musculus [26]): Active | Activity (Mus musculus [27]): Active
